Test results reported in patent US20070254877A1, “Indole Derivative and Use for Treatment of Cancer” (Takada Pharmaceutical Company Limited, priority 2004, published 2007).
Where a name gives a salt, the structure may show the parent alone.

The compounds below were run against T1, VEGFR2 intracellular domain protein (Homo sapiens, UniProt P35968) (assay: Determination of VEGF Receptor 2 Kinase (VEGFR2) inhibitory activity (AlphaScreen)). Conditions: test compound at 1 μM; ATP 25 μM buffer, 25° C., 5 min; read-out: kinase inhibitory rate (%).
T1 construct: made in house; host or cells: SF-21 insect cells infected with recombinant baculovirus BAC-VEGFR2
T1 sequence (P35968 786-1356 limits assumed): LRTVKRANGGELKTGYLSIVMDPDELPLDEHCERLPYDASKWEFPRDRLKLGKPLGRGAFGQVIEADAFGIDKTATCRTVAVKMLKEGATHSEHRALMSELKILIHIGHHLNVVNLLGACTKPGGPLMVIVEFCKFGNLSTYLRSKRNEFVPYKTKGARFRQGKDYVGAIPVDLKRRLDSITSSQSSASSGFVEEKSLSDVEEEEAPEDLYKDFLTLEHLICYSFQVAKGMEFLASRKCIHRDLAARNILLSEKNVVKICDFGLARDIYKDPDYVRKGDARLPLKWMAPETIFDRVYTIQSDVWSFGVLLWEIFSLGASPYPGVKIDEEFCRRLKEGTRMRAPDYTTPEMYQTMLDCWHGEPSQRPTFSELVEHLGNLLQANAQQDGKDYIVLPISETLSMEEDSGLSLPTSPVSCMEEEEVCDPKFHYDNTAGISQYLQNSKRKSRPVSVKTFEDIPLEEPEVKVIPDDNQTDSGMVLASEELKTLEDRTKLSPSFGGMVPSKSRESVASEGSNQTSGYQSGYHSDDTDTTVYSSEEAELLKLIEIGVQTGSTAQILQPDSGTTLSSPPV
Type: biochemical
Experimental: Human VEGF receptor 2 (hereinafter to be abbreviated as VEGFR2) gene was cloned by PCR using cDNA Libraries Human Placenta (Clontech) as a template. The primer used for PCR was prepared from nucleotide sequence (Genbank Accession AF035121) information of VEGFR2 gene by adding a nucleotide sequence encoding flag peptide and a restriction enzyme recognition sequence to a nucleotide sequence (2671-4374 of Genbank Accession AF035121) encoding the VEGFR2 intracellular domain region, so that the protein contains an N-terminal flag tag. The primer nucleotide sequence is shown below.
SF-21 cells were sown at 1×10^6 cells/ml to Sf-900II SFM medium (1 L, Invitrogen) containing 10% fetal bovine serum (trace), 50 mg/L gentamicin (Invitrogen) and 0.1% Pluronic F-68 (Invitrogen), and shaking culture was performed using a 2 L volume Erlenmeyer flask at 27° C., 100 rpm. After culturing for 24 hrs, recombinant baculovirus BAC-VEGFR2 (13.4 mL) was added, and the mixture was further cultured for 3 days. The culture medium was centrifuged at 2,000 rpm for 5 min to give virus-infected cells. The infected cells were washed with a phosphate buffered saline (Invitrogen), centrifuged under the same conditions, and the cells were preserved at −80° C. The cryopreserved cells were thawed in ice, suspended in buffer A (50 mM Tris buffer (30 mL, pH 7.4) containing 20% glycerol, 0.15 M NaCl) supplemented with Complete Protease Inhibitor (Boehringer), and ruptured 3 times with a Polytron homogenizer (Kinematica) at 20,000 rpm for 30 sec. The rupture medium was clarified by centrifugation at 40,000 rpm for 30 min and filtered with a 0.45 μm filter. The filtrate was passed through a column packed with Anti-FLAG M2 Affinity Gel (4 mL, Sigma) at a flow rate of about 0.5 mL/min. The column was washed with buffer A, and eluted with buffer A containing 100 μg/mL of FLAG peptide. The eluate was concentrated with Vivaspin 20 (Vivascience) having a molecular weight cut off of 30K. The buffer of this concentrate was exchanged using NAP™ 25 column (Amersham Bioscience) equilibrated with buffer A. The fractions containing VEGFR2 intracellular domain protein were collected, glycerol was added to the final concentration of 50% and cryopreserved at −80° C.
A test compound dissolved in dimethyl sulfoxide (DMSO) was diluted with a buffer (50 mM Tris-HCl (pH 7.5), 5 mM MgCl2, 5 mM MnCl2, 2 mM dithiothreitol, 0.01% Tween-20). To this compound solution (5 μl) was added a buffer […] containing 50 ng/ml of VEGFR2 intracellular domain protein and 250 ng/ml of biotin labeled polypeptide biotinyl-poly-Glu:Tyr (4:1) (CIS bio International). To the obtained mixture was added a buffer (10 μl) containing ATP (25 μM), the mixture was allowed to react at 25° C. for 5 min and the reaction was quenched with 25 μl of a stop solution (100 mM EDTA disodium salt, 62.5 mM HEPES buffer (pH 7.4), 250 mM NaCl, 0.1% bovine serum albumin, 10 μg/ml AlphaScreen assay streptavidin donor beads (Streptavidin Donor beads: PerkinElmer), 10 μg/ml AlphaScreen assay anti-phosphotyrosine recognition antibody PY-100 binding acceptor beads (Anti-phosphotyrosine (P-Tyr-100) Acceptor beads: PerkinElmer)). The reaction solution was allowed to stand at 25° C. for 16 hrs, and the […] using a plate reader Fusion™ (manufactured by PerkinElmer). The kinase inhibitory rate (%) of the test compound was calculated by the following formula: Inhibitory rate (%)=(1−(count of test compound−blank)÷(control−blank))×100
The count of the solution reacted without addition of the compound was used as a “control”, and the count of the solution without the compound and ATP was used as a “blank”.

**Q.** How did the inhibition at 1 µM turn out when `O=C(c1ccc2[nH]c3c(c2c1)CCCc1cn[nH]c1-3)N1CCC(N2CCCCCC2)CC1` [Example 11, 8-[(4-azepan-1-ylpiperidin-1-yl)carbonyl]-4,5,6,11-tetrahydro-1H-pyrazolo[4′,3′:6,7]cyclohepta[1,2-b]indole hydrochloride] was run?
**A.** ≥ 90%

**Q.** How did the inhibition at 1 µM turn out when `O=C(c1ccc2[nH]c3c(c2c1)CCCc1cn[nH]c1-3)N1CCC(N2CCSCC2)CC1` [Example 15, 8-[(4-thiomorpholin-4-ylpiperidin-1-yl)carbonyl]-4,5,6,11-tetrahydro-1H-pyrazolo[4′,3′:6,7]cyclohepta[1,2-b]indole hydrochloride] was run?
**A.** ≥ 90%

**Q.** How did the inhibition at 1 µM turn out when `O=C(c1ccc2[nH]c3c(c2c1)CCCc1cn[nH]c1-3)N1CCC(NCc2ccccc2)CC1` [Example 17, N-benzyl-1-(4,5,6,11-tetrahydro-1H-pyrazolo[4′,3′:6,7]cyclohepta[1,2-b]indol-8-ylcarbonyl)piperidin-4-amine hydrochloride] was run?
**A.** ≥ 90%

**Q.** Which inhibition at 1 µM does the source give for `O=C(c1ccc2[nH]c3c(c2c1)CCCc1cn[nH]c1-3)N1CCC(O)(c2ccc(F)cc2)CC1` [Example 41, 4-(4-fluorophenyl)-1-(4,5,6,11-tetrahydro-1H-pyrazolo[4′,3′:6,7]cyclohepta[1,2-b]indol-8-ylcarbonyl)piperidin-4-ol] here?
**A.** ≥ 80%

**Q.** How did the inhibition at 1 µM turn out when `O=C(c1ccc2[nH]c3c(c2c1)CCCc1cn[nH]c1-3)N1CCC(O)(c2cccc(F)c2)CC1` [Example 42, 4-(3-fluorophenyl)-1-(4,5,6,11-tetrahydro-1H-pyrazolo[4′,3′:6,7]cyclohepta[1,2-b]indol-8-ylcarbonyl)piperidin-4-ol] was run?
**A.** ≥ 80%

**Q.** Which inhibition at 1 µM does the source give for `O=C(c1ccc2[nH]c3c(c2c1)CCCc1cn[nH]c1-3)N1CCC(O)(c2ccccc2F)CC1` [Example 43, 4-(2-fluorophenyl)-1-(4,5,6,11-tetrahydro-1H-pyrazolo[4′,3′:6,7]cyclohepta[1,2-b]indol-8-ylcarbonyl)piperidin-4-ol] here?
**A.** ≥ 80%

**Q.** With `O=C(c1ccc2[nH]c3c(c2c1)CCCc1cn[nH]c1-3)N1CCC(O)(c2ccc(Cl)cc2)CC1` [Example 44, 4-(4-chlorophenyl)-1-(4,5,6,11-tetrahydro-1H-pyrazolo[4′,3′:6,7]cyclohepta[1,2-b]indol-8-ylcarbonyl)piperidin-4-ol] as the compound, how does the inhibition at 1 µM read?
**A.** ≥ 80%

**Q.** How did the inhibition at 1 µM turn out when `O=C(c1ccc2[nH]c3c(c2c1)CCCc1cn[nH]c1-3)N1CCC(O)(c2cccc(Cl)c2)CC1` [Example 45, 4-(3-chlorophenyl)-1-(4,5,6,11-tetrahydro-1H-pyrazolo[4′,3′:6,7]cyclohepta[1,2-b]indol-8-ylcarbonyl)piperidin-4-ol] was run?
**A.** ≥ 80%

**Q.** For `O=C(c1ccc2[nH]c3c(c2c1)CCCc1cn[nH]c1-3)N1CCC(O)(c2ccccc2Cl)CC1` [Example 46, 4-(2-chlorophenyl)-1-(4,5,6,11-tetrahydro-1H-pyrazolo[4′,3′:6,7]cyclohepta[1,2-b]indol-8-ylcarbonyl)piperidin-4-ol], which inhibition at 1 µM is on record?
**A.** ≥ 80%

**Q.** With `O=C(c1ccc2[nH]c3c(c2c1)CCCc1cn[nH]c1-3)N1CCC(O)(c2ccc(C(F)(F)F)cc2)CC1` [Example 47, 1-(4,5,6,11-tetrahydro-1H-pyrazolo[4′,3′:6,7]cyclohepta[1,2-b]indol-8-ylcarbonyl)-4-[4-(trifluoromethyl)phenyl]piperidin-4-ol] as the compound, how does the inhibition at 1 µM read?
**A.** ≥ 80%

**Q.** For `O=C(c1ccc2[nH]c3c(c2c1)CCCc1cn[nH]c1-3)N1CCC(O)(c2cccc(C(F)(F)F)c2)CC1` [Example 48, 1-(4,5,6,11-tetrahydro-1H-pyrazolo[4′,3′:6,7]cyclohepta[1,2-b]indol-8-ylcarbonyl)-4-[3-(trifluoromethyl)phenyl]piperidin-4-ol], which inhibition at 1 µM is on record?
**A.** ≥ 80%

**Q.** How did the inhibition at 1 µM turn out when `O=C(c1ccc2[nH]c3c(c2c1)CCCc1cn[nH]c1-3)N1CCC(O)(c2ccccc2C(F)(F)F)CC1` [Example 49, 1-(4,5,6,11-tetrahydro-1H-pyrazolo[4′,3′:6,7]cyclohepta[1,2-b]indol-8-ylcarbonyl)-4-[2-(trifluoromethyl)phenyl]piperidin-4-ol] was run?
**A.** ≥ 80%
